{"source": "patent US7981923B2", "about": "“Tetralin and indane derivatives and uses thereof” (Roche Palo Alto LLC, priority 2006, dated 2011)", "target": "T1, recombinant human 5-HT6 receptor (Homo sapiens, UniProt P50406)", "T1 construct": "expressed in transfected cells; membranes", "T1 sequence (P50406 whole entry)": "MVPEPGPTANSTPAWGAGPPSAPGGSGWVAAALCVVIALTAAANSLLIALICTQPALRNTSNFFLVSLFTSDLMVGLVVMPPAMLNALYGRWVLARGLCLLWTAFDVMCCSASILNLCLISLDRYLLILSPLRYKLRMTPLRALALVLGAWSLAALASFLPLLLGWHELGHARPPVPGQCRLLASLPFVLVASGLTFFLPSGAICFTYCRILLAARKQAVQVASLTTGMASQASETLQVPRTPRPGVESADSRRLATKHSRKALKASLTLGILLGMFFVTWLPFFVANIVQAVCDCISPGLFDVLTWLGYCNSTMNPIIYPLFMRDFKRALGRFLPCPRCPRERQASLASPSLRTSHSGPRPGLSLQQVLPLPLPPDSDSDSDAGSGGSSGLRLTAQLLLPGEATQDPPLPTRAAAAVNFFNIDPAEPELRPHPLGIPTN", "test": "Radioligand binding, [3H]LSD competition in HEK293 cell membranes", "settings": "competition for [3H]LSD binding, membranes of HEK293 cells expressing recombinant human 5-HT6 receptor; read-out: pKi for 5-HT6 (converted)", "description": "The binding activity of compounds of this invention in vitro was determined as follows. Duplicate determinations of 5-HT6 ligand affinity were made by competing for binding of [^3H]LSD in cell membranes derived from HEK293 cells stably expressing recombinant human 5-HT6 receptor. Duplicate determinations of 5-HT2A ligand affinity were made by competing for binding of [^3H]Ketanserin (3-(2-(4-(4-fluorobenzoyl)piperidinol)ethyl)-2,4(1H,3H)-quinazolinedione) in cell membranes derived from CHO-K1 cells stably expressing recombinant human 5-HT2A receptor. Membranes were prepared from HEK 293 cell lines by the method described by Monsma et al., Molecular Pharmacology, Vol. 43 pp. 320-327 (1993), and from CHO-K1 cell lines as described by Bonhaus et al., Br J Pharmacol. June; 115 (4):622-8 (1995).\nFor estimation of affinity at the 5-HT2A receptor all determinations were made in assay buffer containing 50 mM Tris-HCl, 5 mM ascorbic acid, 4 mM CaCl2, pH 7.4 at 32° C., in a 250 microliter reaction volume.\nAssay tubes containing [^3H] […] LSD or [^3H]Ketanserin were determined as radioactive counts per minute using Packard TopCount.\nDisplacement of [^3H]LSD or [^3H]Ketanserin from the binding sites was quantified by fitting concentration-binding data to a 4-parameter logistic equation: […]", "data": [{"smiles": "NC[C@@H]1CCCc2cc(S(=O)(=O)c3cccc(F)c3)cc(F)c21", "note": "(stereo in doubt) [C-[8-Fluoro-6-(3-fluoro-benzenesulfonyl)-1,2,3,4-tetrahydro-naphthalen-1-yl]-methylamine]", "values": [{"measurement": "Ki", "value": "~0.1", "unit": "nM"}]}]}
